Assay results reported in ChEMBL document CHEMBL5356998, “Diaporaustalides A-L, Austalide Meroterpenoids from a Plant Endophytic Diaporthe sp” (J Nat Prod, 2024).

Key:
Splenocyte [1] = experiment: Immunosuppressive activity in mouse splenocyte assessed as reduction in LPS-induced mouse B-cell proliferation; type: functional, cell-based
[2] = Cytotoxicity against mouse splenocyte by MTT assay; type: toxicity, cell-based; settings: mouse splenocytes
Splenocyte [3] = experiment: Immunosuppressive activity in mouse splenocyte assessed as reduction in ConA-induced mouse T-cell proliferation; type: functional, cell-based
[4] = Selectivity index, ratio of CC50 for cytotoxicity against mouse splenocyte to IC50 for immunosuppressive activity in mouse splenocyte assessed as reduction in ConA-induced mouse T-cell proliferation; settings: mouse splenocytes, read-out: Ratio CC50/IC50
[5] = Selectivity index, ratio of CC50 for cytotoxicity against mouse splenocyte to IC50 for immunosuppressive activity in mouse splenocyte assessed as reduction in LPS-induced mouse B-cell proliferation; settings: mouse splenocytes, read-out: Ratio CC50/IC50
Alpha-glucosidase = Alpha-glucosidase (Saccharomyces cerevisiae S288c, UniProt P53341+P38158+P07265); experiment: Inhibition of Saccharomyces cerevisiae alpha glucosidase using p-nitrophenyl glucopyranoside as substrate preincubated for 10 mins followed by substrate addition and measured after 20 mins by microplate reader analysis; type: protein assay
B-cell = experiment: Downregulation od IL-6 expression in LPS induced B cell (unknown origin) incubated for 48 hrs by ELISA method; type: functional, cell-based; settings: dose 1-25 µM
HeLa = experiment: Cytotoxicity against human HeLa cells by MTT assay; type: functional, cell-based

Row | IC50 (Alpha-glucosidase) [µM] | SMILES | IC50 (Splenocyte [1]) [µM] | CC50 [2] [µM] | IC50 (Splenocyte [3]) [µM] | selectivity ratio [4] | selectivity ratio [5] | Activity (B-cell) | IC50 (HeLa) [µM]
1 | – | COc1c(C)c2c(c(O)c1C/C=C(\C)CCC(=O)OCCN1CCOCC1)C(=O)OC2 [MYCOPHENOLATE MOFETIL] | 1 | – | – | – | – | – | –
2 | – | COc1c2c(c(C=O)c3c1C(=O)OC3)O[C@]1(C)[C@H](O)C[C@@]3(O)C(C)(C)CCC[C@]3(C)[C@H]1C2 | 8.5 | 23 | 22 | > 1 | 2.7 | – | –
3 | 61 | COc1c2c(c(C=O)c3c1C(=O)OC3)O[C@]1(C)CC[C@@]3(O)C(C)(C)CCC[C@]3(C)[C@H]1C2 | 3.8 | > 50 | 42 | 1.1 | > 13 | Dose-Dependent Effect | –
4 | – | COc1c2c(c(C=O)c3c1C(=O)OC3)O[C@]1(C)CC[C@@]3(O)[C@@](C)(CO)CCC[C@]3(C)[C@H]1C2 | > 50 | > 50 | 25 | > 2 | – | – | –
5 | – | COc1c2c(c(C=O)c3c1C(=O)OC3)O[C@]1(C)CC[C@@]3(O)C(C)(C)[C@@H](O)CC[C@]3(C)[C@H]1C2 | > 50 | > 50 | 28 | > 1.7 | – | – | –
6 | – | COc1c2c(c(C=O)c3c1C(=O)OC3)O[C@]1(C)CC[C@H]3C(C)(C)[C@@H](O)CC[C@]3(C)[C@H]1C2 | > 50 | > 50 | 35 | > 1.4 | – | – | 9.6
7 | – | COc1c2c(c(C=O)c3c1C(=O)OC3)O[C@]1(C)CC[C@@]3(O)[C@@](C)(C(=O)O)CCC[C@]3(C)[C@H]1C2 | > 50 | > 50 | 35 | > 1.4 | – | – | –
8 | 166 | COc1c2c(c(C=O)c3c1C(=O)OC3)O[C@]1(C)CC[C@@]3(O)[C@@](C)(COC(C)=O)CCC[C@]3(C)[C@H]1C2 | 17 | > 40 | 28 | > 1.4 | > 2.3 | – | –
9 | 92 | COc1c2c(c(C(OC)OC)c3c1C(=O)OC3)O[C@]1(C)CC[C@@]3(O)C(C)(C)CCC[C@]3(C)[C@H]1C2 | 44 | > 50 | > 50 | – | – | – | –
10 | – | COc1c2c(c(C=O)c3c1C(=O)OC3)O[C@]1(C)CC[C@@]3(O)[C@@](C)(C=O)CCC[C@]3(C)[C@H]1C2 | 39 | 43 | 37 | 1.2 | 1.1 | – | –
11 | – | COc1c2c(c(C=O)c3c1C(=O)OC3)O[C@]1(C)CC[C@@]3(O)C(C)(C)CC[C@@H](O)[C@]3(C)[C@H]1C2 | 31 | > 50 | > 50 | – | > 1.6 | – | –
12 | – | COc1c2c(c(C=O)c3c1C(=O)OC3)O[C@]1(C)CC[C@@]3(O)C(C)(C)[C@H](O)CC[C@]3(C)[C@H]1C2 | > 50 | > 50 | > 50 | – | – | – | –
13 | – | COc1c2c(c(C=O)c3c1C(=O)OC3)O[C@]1(C)CC[C@H]3C(C)(C)[C@H](O)CC[C@]3(C)[C@H]1C2 | 6.7 | 24 | 11 | 2.2 | 3.6 | Dose-Dependent Effect | –
